Measurements published in patent US20210284691A1, “CBX8 CHROMDOMAIN INHIBITORS AND THE USES THEREOF” (Purdue Research Foundation, priority 2019, published 2021).
Square brackets hold non-standard residues; d marks the D form. Peptide text beside a SMILES is read from it. * marks the point of attachment. Tyr(3-Cl) = N[C@@H](Cc1ccc(O)c(Cl)c1)C(=O)O; Benzoyl(3,5-Cl2) = O=C(c1cc(Cl)cc(Cl)c1)*; Lys(Et2) = CCN(CC)CCCC[C@H](N)C(=O)O; Gly(cPent) = N[C@H](C(=O)O)C1CCCC1; NH(propargyl) = C#CCN*

Key:
Format in all cases: cell-based
LNCaP_NED cells = assay: LNCaP_NED cell proliferation, viability and morphology
Text: FIG. 12A). Neuroendocrine differentiation (NED) of prostate cancer induced by androgen deprivation. Representative pictures of LNCaP cells treated with normal media or charcoal-stripped serum (CSS) media for 6 days to induce neuroendocrine differentiation (LNCaP_NED). FIG. 12B). Transcriptional fold changes of KLK3/TMPRSS2/ENO2/CHGA were quantified normalized to control gene YWHAZ upon CSS media treatment for 6 or 9 days. FIG. 12C). Western blotting of CBX paralogs in LNCaP and LNCaP_NED cells generated from 14-day CSS treatment. FIG. 12D). Cell proliferation of LNCaP_NED following 5 days incubation with 2 or 10 μM SW2_152F. DMSO was used as negative control. FIG. 12E). LNCaP_NED cells were treated with 10 μM SW2_152F for 24 h-96 h. Cell morphology pictures were captured starting from 24 h. Average cell size were plotted at 24 h or 48 h for both DMSO group and compound treated group. FIG. 12F). LNCaP_NED cells were treated with 10 μM or 50 μM SW2_152F for 48 hours. Transcriptional fold change of genes (KLK3/TMPRSS2/AR/CBX2) were normalized to YWHAZ in LNCaP_NED cells with SW2_152F treatment or DMSO. FIG. 12G). LNCaP cells were treated with DMSO. LNCaP_NED cells were treated with DMSO, 10 μM GSK343 or 10 μM SW2_152F for 48 hours. Whole cell lysates were extracted for western blotting. FIG. 12H). LNCaP_NED cells were treated with DMSO or 10 μM SW2_152F for 4 hours before harvest. Binding of H3K27me3 and CBX2 at specific genomic sites (KLK3/TMPRSS2, e: enhancer, p: promoter) were evaluated using chromatin immunoprecipitation-qPCR. For all experiments in the figure, error bars represent SEM n=3 biological replicates, p-values were calculated using two-tailed Student's t-test, *=p<0.05, **=p<0.01, ***=p<0.001, ****=p<0.0001.
Cellular Activity of CBX2 Inhibitor in Neuroendocrine Differentiation of Prostate Cancer—Generation of a Prostate Cancer Neuroendocrine Differentiation (NED) System. To generate an in vitro model for NED, we cultured the androgen-sensitive prostate cancer cell line LNCaP in charcoal-stripped serum (CSS), which lacks androgens as well as other steroids. Upon treatment with CSS media, LNCaP cells adopted morphological characteristics of neuroendocrine-like cells (LNCaP_NED), which include dominant nucleus, limited cytoplasm, dendrites (FIG. 12A) and a decreased proliferation rate. To monitor transcriptional changes during androgen deprivation, we quantified the changes in expression of two NED markers (ENO2 and CHGA) and two AR target genes (KLK3 and TMPRSS2) by RT-qPCR during 15 days of androgen deprivation. […] To verify that LNCaP_NED cells become resistant to AR antagonists, we tested the effects of the AR antagonist enzalutamide (ENZA) on cell proliferation.

[1] = biological target: T1, CBX2 binding to chromatin (Homo sapiens, UniProt Q14781); assay: ChIP-qPCR in K562 cells
T1 construct: endogenous in cells; host or cells: HEK293T (A21); K562 (A22)
Procedure: (§1) FIGS. 11A-11E: Cellular Activity of CBX2 ChD Ligand. FIG. 11A) Relative cytosolic access of SW2_152F conjugated to a chloroalkane (SW2_152F-CA, SEQ ID NO: 28) was evaluated using chloroalkane penetration assay (CAPA). The half maximal cell penetration value (CP50) of SW2_152F-CA was determined for SW2_152F-CA and CBX8 inhibitor SW2_110A-CA. FIG. 11B) Chemoprecipitations from HEK293T nuclear lysates using biotinylated SW2_152F (SW2_152F-B, SEQ ID NO: 29) were analyzed using immunoblot analysis. FIG. 11C) Analysis and quantification of SW2_152F in abrogating bulk binding of endogenous CBX proteins to chromatin in HEK293T cells by Sequential Salt Extraction. FIG. 11D). Chromatin immunoprecipitation (ChIP) from K562 cells using antibodies against IgG, H3K27me3, CBX2 and CBX8 was followed by quantitative PCR of genomic regions near Tm9SF4 (negative locus), TCF21, Fyn-2, and PAX7. Cells were treated with 10 μM SW2_152F for 4 h prior to harvest. FIG. 11E) Chromatin immunoprecipitation (ChIP) in Hs68 fibroblast cells using antibodies against IgG, CBX7, and CBX8 followed by quantitative PCR of genomic regions at LMNB2 (negative locus), CCND2, and RUNX3. Cells were treated with 100 μM SW2_152F for 4 h prior to harvest. For all qPCR, error bars represent SEM n=3 biological replicates, p-values were calculated using two-tailed Student's t-test, * p<0.05, **=p<0.01, ***=p<0.001, ****=p<0.0001.
(§2) ChIP-qPCR. After validating selectivity using lysate and bulk chromatin, we wanted to determine whether the inhibitor can disrupt CBX2 binding to chromatin in live cells. We used chromatin immunoprecipitation (ChIP) followed by quantitative PCR (ChIP-qPCR) of sites with CBX2, CBX8 and H3K27me3 enrichment in K562 ChIP-Seq datasets in ENCODE (M. Azkanaz, et al., Elife 2019). We evaluated effects of compound treatment at both 10 μM and 100 μM SW2_152F. […] In order to evaluate SW2_152F activity against a paralog with no binding to SW2_152F in vitro, CBX7 ChIP-qPCR was performed in Hs68 fibroblast cells, which have no detectable CBX2 expression (H. Pemberton, et al., Genome Biol. 2014).

[2] = biological target: T2, CBX8 binding to chromatin (Homo sapiens, UniProt Q9HC52); assay: ChIP-qPCR in K562 cells
T2 construct: endogenous in cells; host or cells: Hs68 fibroblasts (A16); HEK293T (A19); K562 (A23)
T2 sequence (Q9HC52 1-389): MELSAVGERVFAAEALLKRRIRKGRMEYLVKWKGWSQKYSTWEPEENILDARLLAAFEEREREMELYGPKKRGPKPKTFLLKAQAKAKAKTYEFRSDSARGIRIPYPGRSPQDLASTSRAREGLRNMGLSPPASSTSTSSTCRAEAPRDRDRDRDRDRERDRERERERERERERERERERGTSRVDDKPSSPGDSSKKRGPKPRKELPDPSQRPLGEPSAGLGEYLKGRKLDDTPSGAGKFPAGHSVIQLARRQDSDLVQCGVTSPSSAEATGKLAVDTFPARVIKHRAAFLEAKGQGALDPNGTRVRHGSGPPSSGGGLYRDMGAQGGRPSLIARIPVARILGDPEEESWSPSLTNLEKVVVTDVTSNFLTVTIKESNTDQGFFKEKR
Procedure: as §1, §2

T1 sequence (Q14781 whole entry): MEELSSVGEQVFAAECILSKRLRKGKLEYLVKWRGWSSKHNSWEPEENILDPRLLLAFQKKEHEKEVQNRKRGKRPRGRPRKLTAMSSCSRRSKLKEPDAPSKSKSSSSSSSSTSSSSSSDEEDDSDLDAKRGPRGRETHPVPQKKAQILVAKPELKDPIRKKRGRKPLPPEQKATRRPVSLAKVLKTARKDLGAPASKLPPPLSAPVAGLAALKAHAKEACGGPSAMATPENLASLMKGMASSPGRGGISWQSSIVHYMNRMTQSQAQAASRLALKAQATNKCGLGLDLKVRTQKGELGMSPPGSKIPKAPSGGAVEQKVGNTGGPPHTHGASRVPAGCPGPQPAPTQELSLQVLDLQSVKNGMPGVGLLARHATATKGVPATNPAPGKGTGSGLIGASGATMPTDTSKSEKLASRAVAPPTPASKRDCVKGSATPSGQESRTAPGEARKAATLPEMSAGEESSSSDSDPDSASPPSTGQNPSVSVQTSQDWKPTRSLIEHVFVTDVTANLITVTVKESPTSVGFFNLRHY

CBX2 binding, ChIP-qPCR ([1]; 10 μM, 4 h): significant reduction of CBX2 binding
CBX8 binding, ChIP-qPCR ([2]; 10 μM, 4 h): not CBX8 binding
Compound: C#CCNC(=O)[C@H](CO)NC(=O)[C@H](CCCCN(CC)CC)NC(=O)[C@@H](NC(=O)[C@@H](NC(=O)[C@H](Cc1ccc(O)c(Cl)c1)NC(=O)c1cc(Cl)cc(Cl)c1)C1CCCC1)[C@@H](C)CC [SW2_152F] ({Benzoyl(3,5-Cl2)}-[Tyr(3-Cl)][Gly(cPent)]I[Lys(Et2)]S-{NH(propargyl)})
cell size and dendrites of LNCaP_NED cells (LNCaP_NED cells; 10 μM, 24 h or 48 h): significantly decreased average cell size and reduced dendrites
LNCaP_NED cell proliferation (LNCaP_NED cells; 2 or 10 μM, 5 days): significantly inhibited LNCaP_NED cell proliferation
LNCaP_NED cell viability, combination with ENZA (LNCaP_NED cells; both compounds, 4 days, compared to either alone): significantly decreased
CBX2 binding, ChIP-qPCR ([1]; 100 μM): significant reduction of both CBX2 and CBX8 binding
CBX8 binding, ChIP-qPCR ([2]; 100 μM): significant reduction of both CBX2 and CBX8 binding
